Each compound was assayed against T1, recombinant guanylate cyclase reporter cell line (Rattus norvegicus, UniProt P19686+P20595) (assay: Effect on a recombinant guanylate cyclase reporter cell line). Conditions: MEC=minimum effective concentration; in some cases as mean values for individual determinations.
T1 construct: expressed in transfected cells
T1 sequence (P19686 1-690): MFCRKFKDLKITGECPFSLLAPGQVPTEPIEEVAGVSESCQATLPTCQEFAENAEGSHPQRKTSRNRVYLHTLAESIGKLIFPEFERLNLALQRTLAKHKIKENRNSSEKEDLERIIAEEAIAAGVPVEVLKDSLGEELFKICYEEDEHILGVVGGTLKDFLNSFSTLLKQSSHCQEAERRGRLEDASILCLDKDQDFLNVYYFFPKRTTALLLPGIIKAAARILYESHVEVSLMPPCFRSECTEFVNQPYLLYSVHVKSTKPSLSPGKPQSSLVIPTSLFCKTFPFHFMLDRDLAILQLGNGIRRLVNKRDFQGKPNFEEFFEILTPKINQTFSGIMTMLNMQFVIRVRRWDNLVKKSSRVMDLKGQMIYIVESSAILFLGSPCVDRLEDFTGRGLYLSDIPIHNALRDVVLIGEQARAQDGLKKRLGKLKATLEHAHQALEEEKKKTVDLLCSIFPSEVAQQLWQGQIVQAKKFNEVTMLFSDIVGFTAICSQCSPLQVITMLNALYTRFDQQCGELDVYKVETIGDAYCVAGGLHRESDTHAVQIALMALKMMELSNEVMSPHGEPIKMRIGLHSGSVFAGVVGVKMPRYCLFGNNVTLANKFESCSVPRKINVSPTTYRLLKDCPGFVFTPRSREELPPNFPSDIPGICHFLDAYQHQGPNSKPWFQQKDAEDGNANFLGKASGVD
T1 sequence (P20595 1-619): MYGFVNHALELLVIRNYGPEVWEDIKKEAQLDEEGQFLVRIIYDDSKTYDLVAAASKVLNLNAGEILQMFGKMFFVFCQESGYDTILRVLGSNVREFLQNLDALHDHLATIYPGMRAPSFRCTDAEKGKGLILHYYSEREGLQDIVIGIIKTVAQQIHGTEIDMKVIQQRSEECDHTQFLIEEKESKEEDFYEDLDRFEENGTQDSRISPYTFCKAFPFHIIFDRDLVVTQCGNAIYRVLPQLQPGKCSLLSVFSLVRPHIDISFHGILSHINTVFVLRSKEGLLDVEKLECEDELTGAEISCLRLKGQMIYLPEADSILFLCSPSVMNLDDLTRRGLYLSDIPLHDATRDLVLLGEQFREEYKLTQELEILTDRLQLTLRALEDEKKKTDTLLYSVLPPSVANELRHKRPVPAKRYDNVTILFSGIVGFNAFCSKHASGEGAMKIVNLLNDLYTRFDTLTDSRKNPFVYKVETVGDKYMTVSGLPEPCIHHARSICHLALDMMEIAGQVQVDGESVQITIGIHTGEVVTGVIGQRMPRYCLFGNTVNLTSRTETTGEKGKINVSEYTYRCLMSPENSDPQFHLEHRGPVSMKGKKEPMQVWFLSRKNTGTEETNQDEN
Type: cell-based
Protocol: B-2. Effect on a Recombinant Guanylate Cyclase Reporter Cell Line
The cellular activity of the compounds of the invention is determined using a recombinant guanylate cyclase reporter cell line, as described in F. Wunder et al., Anal Biochem. 339, 104-112 (2005).
Representative MEC values (MEC=minimum effective concentration) for the compounds of the invention are shown in the table below (in some cases as mean values for individual determinations): […]

MEC [µM]	SMILES
10	CCC(C)(N)CNC(=O)c1c(C)nc2c(OCc3c(F)cccc3F)cc(-c3cnn(C)c3)cn12 (racemic) [Example 6, rac-N-(2-Amino-2-methylbutyl)-8-[(2,6-difluorobenzyl)oxy]-2-methyl-6-(1-methyl-1H-pyrazol-4-yl)imidazo[1,2-a]pyridine-3-carboxamide]
0.03	Cc1cc(OCc2c(F)cccc2F)c2nc(Cl)c(C(=O)NC(CCC(F)(F)C(F)(F)F)C(C)(C)O)n2c1 (single isomer, unassigned; ent-2) [Example 28, ent-2-Chloro-8-[(2,6-difluorobenzyl)oxy]-6-methyl-N-(6,6,7,7,7-pentafluoro-2-hydroxy-2-methylheptan-3-yl)imidazo[1,2-a]pyridine-3-carboxamide (enantiomer A)]
10	CCC(C)(N)CNC(=O)c1c(COC)nc2c(OCc3c(F)cccc3F)cc(C)cn12.Cl (racemic) [Example 8, rac-N-(2-Amino-2-methylbutyl)-8-[(2,6-difluorobenzyl)oxy]-2-(methoxymethyl)-6-methylimidazo[1,2-a]pyridine-3-carboxamide hydrochloride]
3.0	COc1nc2c(OCc3c(F)cccc3F)cc(C)cn2c1C(=O)NCC(C)(N)CCC(F)(F)F (single isomer, unassigned; enantiomer b) [Example 27, ent-N-(2-Amino-5,5,5-trifluoro-2-methylpentyl)-8-[(2,6-difluorobenzyl)oxy]-2-methoxy-6-methylimidazo[1,2-a]pyridine-3-carboxamide (enantiomer B)]
0.07	Cc1cc(OCc2c(F)cccc2F)c2nc(Cl)c(C(=O)NCC(C)(N)CCC(F)(F)F)n2c1 (single isomer, unassigned; enantiomer b) [Example 19, ent-N-(2-Amino-5,5,5-trifluoro-2-methylpentyl)-2-chloro-8-[(2,6-difluorobenzyl)oxy]-6-methylimidazo[1,2-a]pyridine-3-carboxamide (enantiomer B)]
1.0	Cc1nc2c(OCc3ncccc3F)cccn2c1C(=O)NCC(C)(N)CCC(F)(F)F (single isomer, unassigned; enantiomer b) [Example 11, ent-N-(2-Amino-5,5,5-trifluoro-2-methylpentyl)-8-[(3-fluoropyridin-2-yl)methoxy]-2-methylimidazo[1,2-a]pyridine-3-carboxamide (enantiomer B)]
0.3	Cc1nc2c(OCc3ncccc3F)cc(Cl)cn2c1C(=O)NCC(C)(N)CCC(F)(F)F (single isomer, unassigned; enantiomer b) [Example 10, ent-N-(2-Amino-5,5,5-trifluoro-2-methylpentyl)-6-chloro-8-[(3-fluoropyridin-2-yl)methoxy]-2-methylimidazo[1,2-a]pyridine-3-carboxamide (enantiomer B)]
3.0	CCC(C)(N)CNC(=O)c1c(C)nc2c(OCc3c(F)cccc3F)cc(-n3cccn3)cn12.Cl (racemic) [Example 3, rac-N-(2-Amino-2-methylbutyl)-8-[(2,6-difluorobenzyl)oxy]-2-methyl-6-(1H-pyrazol-1-yl)imidazo[1,2-a]pyridine-3-carboxamide hydrochloride]
0.3	CCCC(C)(N)CNC(=O)c1c(Cl)nc2c(OCc3c(F)cccc3F)cc(C)cn12 (single isomer, unassigned; enantiomer b) [Example 25, ent-N-(2-Amino-2-methylpentyl)-2-chloro-8-[(2,6-difluorobenzyl)oxy]-6-methylimidazo[1,2-a]pyridine-3-carboxamide (enantiomer B)]
3.0	Cc1cc(OCc2c(F)cccc2F)c2nc(C3CC(F)(F)C3)c(C(=O)NCC(C)(N)CCC(F)(F)F)n2c1 (single isomer, unassigned; enantiomer b) [Example 17, ent-N-(2-Amino-5,5,5-trifluoro-2-methylpentyl)-8-[(2,6-difluorobenzyl)oxy]-2-(3,3-difluorocyclobutyl)-6-methylimidazo[1,2-a]pyridine-3-carboxamide (enantiomer B)]
2.0	CCC(C)(N)CNC(=O)c1c(OC)nc2c(OCc3c(F)cccc3F)cc(C)cn12 (single isomer, unassigned; enantiomer b) [Example 26, ent-N-(2-Amino-2-methylbutyl)-8-[(2,6-difluorobenzyl)oxy]-2-methoxy-6-methylimidazo[1,2-a]pyridine-3-carboxamide (enantiomer B)]
2.0	Cc1cc(OCc2c(F)cccc2F)c2nc(C(C)C)c(C(=O)NCC(C)(N)CCC(F)(F)F)n2c1 (single isomer, unassigned; enantiomer b) [Example 18, ent-N-(2-Amino-5,5,5-trifluoro-2-methylpentyl)-8-[(2,6-difluorobenzyl)oxy]-2-isopropyl-6-methylimidazo[1,2-a]pyridine-3-carboxamide (enantiomer B)]
0.1	CCCC(C)(N)CNC(=O)c1c(Cl)nc2c(OCc3c(F)cccc3F)cc(C)cn12 (racemic) [Example 23, rac-N-(2-Amino-2-methylpentyl)-2-chloro-8-[(2,6-difluorobenzyl)oxy]-6-methylmidazo[1,2-a]pyridine-3-carboxamide]
0.55	CCCC[C@H](CO)NC(=O)c1c(OC)nc2c(OCc3c(F)cccc3F)cc(C)cn12 [Example 29, 8-[(2,6-Difluorobenzyl)oxy]-N-[(2R)-1-hydroxyhexan-2-yl]-2-methoxy-6-methylmidazo[1,2-a]pyridine-3-carboxamide]

SMILES	MEC [µM]
Cc1cc(OCc2c(F)cccc2F)c2nc(C)c(C(=O)NCC(C)(N)CCC[Si](C)(C)C)n2c1 (single isomer, unassigned; enantiomer a) [Example 15, ent-N-[2-Amino-2-methyl-5-(trimethylsilyl)pentyl]-8-[(2,6-difluorobenzyl)oxy]-2,6-dimethylimidazo[1,2-a]pyridine-3-carboxamide (enantiomer A)]	0.3
CCC(C)(N)CNC(=O)c1c(C)nc2c(OCc3c(F)cccc3F)cc(C3CC3)cn12.Cl (racemic) [Example 2, rac-N-(2-Amino-2-methylbutyl)-6-cyclopropyl-8-[(2,6-difluorobenzyl)oxy]-2-methylimidazo[1,2-a]pyridine-3-carboxamide hydrochloride]	1.0
Cc1cc(OCc2c(F)cccc2F)c2nc(C)c(C(=O)NCC(C)(N)CC[Si](C)(C)C)n2c1 (single isomer, unassigned; enantiomer b) [Example 14, ent-N-[2-Amino-2-methyl-4-(trimethylsilyl)butyl]-8-[(2,6-difluorobenzyl)oxy]-2,6-dimethylimidazo[1,2-a]pyridine-3-carboxamide (enantiomer B)]	0.2

Reference: patent US20170050961A1, “IMIDAZO[1,2-A]PYRIDINES AS SOLUBLE GUANYLATE CYCLASE STIMULATORS FOR THE TREATMENT OF CARDIOVASCULAR DISEASES” (BAYER PHARMA AKTIENGESELLSCHAFT, priority 2014, published 2017)
